Several values for one entry are separate records, joined by “and”; a condition that tells them apart may be missing. Identical values can stand only once. Marks after values point to notes of the source that are not given here.
Assays:
wt FucP [1] = molecular target: T1, wt FucP (Escherichia coli, UniProt P11551); assay: SSM-based electrophysiology, proteoliposomes with wt FucP; format: biochemical
T1 construct: made in house; host or cells: E. coli BL21 DE3
T1 sequence (P11551 1-438): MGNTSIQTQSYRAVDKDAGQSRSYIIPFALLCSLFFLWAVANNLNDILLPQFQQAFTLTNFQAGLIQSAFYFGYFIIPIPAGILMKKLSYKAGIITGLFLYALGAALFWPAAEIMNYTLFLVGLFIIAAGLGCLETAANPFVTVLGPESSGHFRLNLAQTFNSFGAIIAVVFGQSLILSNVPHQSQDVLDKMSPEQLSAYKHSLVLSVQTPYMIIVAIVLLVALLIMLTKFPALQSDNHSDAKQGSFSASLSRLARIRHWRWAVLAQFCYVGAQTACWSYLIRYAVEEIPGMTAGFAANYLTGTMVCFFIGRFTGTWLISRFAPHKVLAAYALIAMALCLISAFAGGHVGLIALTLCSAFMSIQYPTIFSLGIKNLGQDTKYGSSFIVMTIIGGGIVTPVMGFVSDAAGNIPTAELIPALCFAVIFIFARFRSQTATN
Method: (§1) Reconstitution of purified proteins (2–20 mg/ml) was carried out with E. coli phospholipids (Avanti Polar Lipids, E. coli polar lipid extract). Preformed liposomes (0.2–2 ml, 10 mg/ml) were dissolved in 1% (w/v) n-octyl-β-D-glucoside, and the protein suspension was mixed on ice to a concentration of 0.2 mg protein/mg lipid (LPR 5).
(§2) Wt XylE, wt FucP, and the mutant proteins were reconstituted using overnight incubation in 400 mg/ml BioBeads (SM-2 Adsorbent Media, Bio-Rad) at 4 °C. After reconstitution, the samples were diluted to 2.5 mg/ml lipid concentration, frozen in liquid nitrogen, and stored at −80 °C. For wt LacY and mutant proteins, this procedure was not successful. We, therefore, applied the previously established n-octyl-β-D-glucoside dilution method (1:100) ([69]).
(§3) SSM measurements were performed as described ([20], [23]). After thawing the sample and sonication in a water bath, 30 μl of proteoliposomes (2.5 mg/ml lipid at LPR 5) was allowed to adsorb for 1 to 2 h to an octadecanethiol/phosphatidylcholine hybrid bilayer on a gold surface (the sensor).
(§4) For measurements, a single solution exchange configuration ([23]) was employed that consisted in three phases of 0.5 s duration each: Flow of nonactivating solution (NA), activating solution (A), and nonactivating solution (NA). Only the activating solution contained the sugar. When pH dependence is determined, pH of NA and A solutions during one experiment are kept constant. Between experiments using different pH values, the sensor was incubated at the new pH for 3 min to equilibrate the intraliposomal pH.
(§5) Instruments with different time resolution were used as required. […] Currents were recorded throughout the entire time and amplified with a current amplifier set to a gain of […] and a rise time of 10 ms (low time-resolution set up) or 3 ms (high time-resolution set up).
(§6) All NA solutions were buffered in 100 mM KPi at a given pH value. NA solutions used with LacY contained 1 mM DTT in addition. A solutions were made from NA solutions by adding the respective sugar at a given concentration to induce the symport reaction. Sugar concentration jumps initiated sugar-proton symport, and charge transfer was measured by capacitive coupling. Therefore, only transient currents were recorded.
(§7) Each dataset represented with error bars was generated by performing the same experiment on multiple sensors (n ≥ 3). Error bars represent standard deviations of the average value. When peak currents are averaged across sensors, datasets are normalized before averaging. When the protein catalyzes transport and PSS currents are negligible, the peak current of the transient represents a good approximation of the current generated by the steady-state symport activity of the transporter. In most cases, peak currents have been used to derive kinetic and thermodynamic parameters according to the equations given in Figure 2 (KM, Imax ∼ Vmax, Hill coefficient n), Figure 4 (KD and rate constants for sugar binding kon and release koff), and Figure 6 (pKa for proton binding and pKb for proton release). Reconstruction of transporter currents for analysis of biphasic currents has been performed as described previously ([70]). This is required when transport and PSS currents are observed at the same time.

D46N FucP = molecular target: T2, D46N FucP (Escherichia coli, UniProt P11551, D46N); assay: SSM-based electrophysiology, transport-deficient mutant D46N FucP (PSS currents); format: biochemical
T2 construct: made in house; host or cells: E. coli BL21 DE3
Method: as §1, §2, §3, §4, §5, §6, §7

wt FucP [2] = molecular target: T1, wt FucP; settings: pH 7.6, main substrate, cited from earlier work
FucP = test system: FucP; set-up: method as in PMID 2829831, PMID 8384447; settings: radioactively labeled sugars; read-out: KM, literature; cited from earlier work
D27N XylE [3] = molecular target: T3, D27N XylE (Escherichia coli, UniProt P0AGF4, D27N); assay: SSM-based electrophysiology, transport-deficient mutant D27N XylE (PSS currents, electrogenic binding); format: biochemical
T3 construct: made in house; host or cells: E. coli BL21 DE3
Method: as §1, §2, §3, §4, §5, §6, §7

Q175I/L297F XylE = molecular target: T4, Q175I/L297F XylE (Escherichia coli, UniProt P0AGF4, L297F/Q175I); assay: biochemical
T4 construct: made in house; host or cells: E. coli BL21 DE3
Method: as §1
Wt XylE, wt FucP, and the mutant proteins were reconstituted using overnight incubation in 400 mg/ml BioBeads (SM-2 Adsorbent Media, Bio-Rad) at 4 °C. After reconstitution, the samples were diluted to 2.5 mg/ml lipid concentration, frozen in liquid nitrogen, and stored at −80 °C. […] We, therefore, applied the previously established n-octyl-β-D-glucoside dilution method (1:100) ([69]).
as §3, §4, §5, §6, §7

D27N XylE [4] = molecular target: T3, D27N XylE; settings: relative to D-xylose in wt XylE (100%); cited from earlier work
D27N XylE [5] = molecular target: T3, D27N XylE; settings: cited from earlier work
XylE [6] = settings: radioactively labeled sugars; read-out: KM, literature; cited from earlier work
XylE [7] = molecular target: XylE; set-up: method as in PMID 23075985; settings: read-out: KD, isothermal titration calorimetry; cited from earlier work
wt XylE [8] = molecular target: T5, wt XylE (Escherichia coli, UniProt P0AGF4); settings: cited from earlier work
wt XylE [9] = molecular target: T5, wt XylE; assay: biochemical; set-up: made in house; host or cells: E. coli BL21 DE3
Method: as §1, §2, §3, §4, §5, §6, §7

wt XylE [10] = molecular target: T5, wt XylE; set-up: made in house; host or cells: E. coli BL21 DE3; settings: relative to D-xylose in wt XylE (100%); cited from earlier work

T5 sequence (P0AGF4 whole entry): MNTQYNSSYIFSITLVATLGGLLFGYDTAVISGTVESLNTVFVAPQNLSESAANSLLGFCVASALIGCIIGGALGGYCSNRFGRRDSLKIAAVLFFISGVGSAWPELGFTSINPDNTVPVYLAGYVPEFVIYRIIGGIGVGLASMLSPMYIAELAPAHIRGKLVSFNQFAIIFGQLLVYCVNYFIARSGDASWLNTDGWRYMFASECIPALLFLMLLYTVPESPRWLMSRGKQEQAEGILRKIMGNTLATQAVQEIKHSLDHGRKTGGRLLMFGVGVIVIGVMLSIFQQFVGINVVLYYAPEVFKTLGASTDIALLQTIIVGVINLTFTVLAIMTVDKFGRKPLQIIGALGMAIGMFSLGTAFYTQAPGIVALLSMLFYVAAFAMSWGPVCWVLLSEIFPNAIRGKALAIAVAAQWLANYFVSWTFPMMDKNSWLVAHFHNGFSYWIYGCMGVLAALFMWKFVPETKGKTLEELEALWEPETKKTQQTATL
T4 sequence (P0AGF4 whole entry Q175I/L297F): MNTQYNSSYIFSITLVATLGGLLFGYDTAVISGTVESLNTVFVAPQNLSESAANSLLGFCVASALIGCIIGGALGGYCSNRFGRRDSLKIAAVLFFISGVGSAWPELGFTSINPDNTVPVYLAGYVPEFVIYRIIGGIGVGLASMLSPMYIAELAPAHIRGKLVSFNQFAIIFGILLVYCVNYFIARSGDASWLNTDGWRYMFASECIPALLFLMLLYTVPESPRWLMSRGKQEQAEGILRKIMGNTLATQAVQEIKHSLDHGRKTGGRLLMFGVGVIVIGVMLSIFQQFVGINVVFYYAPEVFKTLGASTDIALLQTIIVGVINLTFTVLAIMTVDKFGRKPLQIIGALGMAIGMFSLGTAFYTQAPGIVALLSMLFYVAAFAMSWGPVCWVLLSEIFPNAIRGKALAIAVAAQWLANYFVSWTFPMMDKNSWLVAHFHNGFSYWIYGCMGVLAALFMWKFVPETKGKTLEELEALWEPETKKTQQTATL
T3 sequence (P0AGF4 whole entry D27N): as the sequence (P0AGF4 whole entry Q175I/L297F) above, with D27N, I175Q, F297L counted along it
T2 sequence (P11551 whole entry D46N): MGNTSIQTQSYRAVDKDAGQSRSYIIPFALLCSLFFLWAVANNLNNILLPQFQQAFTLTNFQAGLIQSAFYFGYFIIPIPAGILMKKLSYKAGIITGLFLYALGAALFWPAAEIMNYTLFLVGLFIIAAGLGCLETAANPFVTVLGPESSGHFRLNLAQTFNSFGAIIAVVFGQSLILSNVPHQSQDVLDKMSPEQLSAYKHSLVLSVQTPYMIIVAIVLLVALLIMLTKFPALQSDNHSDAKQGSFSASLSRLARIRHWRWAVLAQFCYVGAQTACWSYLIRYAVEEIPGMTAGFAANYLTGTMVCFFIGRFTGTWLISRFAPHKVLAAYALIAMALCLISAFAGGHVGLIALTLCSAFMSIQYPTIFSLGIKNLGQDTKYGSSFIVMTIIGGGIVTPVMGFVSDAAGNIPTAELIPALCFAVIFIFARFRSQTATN

Molecule: L-fucose
- KM lower than KM obtained for minor substrates (wt FucP [1]; pH 7.6): 7–12 fold
- Q (pC) wt, PSS transferred charge (wt FucP [1]; pH 10.5, 30 mM substrate, rough estimation): ∼0.5 ^b (pH 10.5) pC
- induction of PSS currents (D46N FucP): induces PSS currents
- kobs (s^−1) mut (D46N FucP; 30 mM substrate, low time-resolution set up): 100 ± 20 ^a s^−1
- Q (pC) Mut, transferred charge (D46N FucP; pH 10.5, 30 mM substrate): −1.2 ± 0.6 (pH 10.5) pC
- Imax (wt FucP [2]): 0.5 ± 0.2 nA
- Km (wt FucP [2]; read-out: KM (mM) Michaelis–Menten equation): 0.9 ± 0.1 mM
- Km (FucP): 20 to 40 µM

Molecule: OC1OC[C@@H](O)[C@H](O)[C@H]1O (stereo partly drawn) [D-xylose]
- Kd (D27N XylE [3]; KD (mM) mut, pH 7.6, hyperbolic fit of peak currents, in Table 3 headed EC50): 1 ± 0.1 mM
- Kd (D27N XylE [3]; KD from fit of concentration-dependent kobs, pH 7.6): 5.5 ± 2.1 mM
- Imax (nA) slow component (D27N XylE [3]; pH 7.6): <0.05 nA
- Q (pC) Mut, transferred charge (D27N XylE [3]; pH 7.6, 30 mM substrate): 6.8 ± 1.5 (pH 7.6) pC
- IPeak (pA) fast component (D27N XylE [3]; pH 7.6, saturating substrate): 500 pA and 500 ± 100 pA
- kobs (s^−1) mut (D27N XylE [3]; saturating substrate (30 mM), kobs = 1/τ, monoexponential fit, limited by time resolution): 300 ± 30 s⁻¹
- EC50 (Q175I/L297F XylE; EC50 (mM) (KM for transport, slow component), pH 7.6): ~1.5 mM
- Imax slow component normalized to D-xylose transport in wt XylE (100%) (Q175I/L297F XylE; pH 7.6): 22%
- Imax (nA) slow component (Q175I/L297F XylE; pH 7.6, reconstructed transporter current): 0.4 ± 0.1 nA
- IPeak (pA) fast component (Q175I/L297F XylE; pH 7.6, saturating substrate): 520 ± 90 pA
- pKa (Q175I/L297F XylE; reconstructed transporter currents, acidic range): 4.8 ± 0.1
- Radioactive counterflow activity (D27N XylE [4]): 90%
- activity in uptake assay (D27N XylE [5]): < 1%
- Km (XylE [6]): 100 to 500 µM
- Kd (XylE [7]): 400 µM
- Imax (wt XylE [8]; pH 7.6, main substrate): 1.8 ± 0.5 nA
- pKa (wt XylE [8]; pH-dependent peak currents, acidic range): 4.6 ± 0.2
- pKb1 (wt XylE [8]; pH-dependent peak currents, alkaline range, double titration): ~7.5
- Km (wt XylE [8]; read-out: KM (mM) Michaelis–Menten equation, pH 7.6, main substrate, in Table 3 headed EC50): ~1.5 mM
- PSS current higher than that for D-glucose (wt XylE [9]; independent of pH): 165 pA
- Q (pC) wt, PSS transferred charge (wt XylE [9]; pH 3.2, 30 mM substrate): 4.0 ± 1.4 (pH 3.2) pC
- Imax in percent of Imax of the main substrate (D-xylose) (wt XylE [9]; pH 7.6): 100%
- IPeak (pA) fast component (wt XylE [9]; pH 7.6, saturating substrate, transport current given as upper limit): <1800 pA
- Radioactive counterflow activity (wt XylE [10]): 100% ^a
